Assay results reported in ChEMBL document CHEMBL1201862, “PubChem BioAssay data set” (2004).
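Following 48 hours of exposure in 96-well plates, responses at five concentrations were used to interpolate endpoints linearly. Abbreviation: GI50, concentration required for 50% inhibition of growth.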 Active and inactive are the calls of the source. No stated cut-off is given here; in the data, active = GI50 up to about 1.1 µM and inactive = higher. Positions of bridges follow the written chain, without caps; N, C: chain ends. Residues, ends and D or L forms follow the SMILES beside them.

How the values were obtained:
Test in all cases: inhibition of tumour cell growth, NCI panel, 48 h
[1] = system: SK-OV-3
[2] = system: MDA-N
[3] = system: MOLT-4
[4] = system: SNB-75
[5] = system: 786-0
[6] = system: HCC 2998
[7] = system: SN12C
[8] = system: SF-295
[9] = system: MCF7
[10] = system: MDA-MB-435
[11] = system: COLO 205
[12] = system: NCI-H226
[13] = system: OVCAR-3
[14] = system: TK-10
[15] = system: SK-MEL-5
[16] = system: SK-MEL-2
[17] = system: HCT-116
[18] = system: DU-145
[19] = system: A549
[20] = system: Malme-3M

| Compound | GI50 [1] | GI50 [2] | GI50 [3] | GI50 [4] | GI50 [5] | GI50 [6] | GI50 [7] | GI50 [8] | GI50 [9] | GI50 [10] | GI50 [11] | GI50 [12] | GI50 [13] | GI50 [14] | GI50 [15] | GI50 [16] | GI50 [17] | GI50 [18] | GI50 [19] | GI50 [20] |
| --- | --- | --- | --- | --- | --- | --- | --- | --- | --- | --- | --- | --- | --- | --- | --- | --- | --- | --- | --- | --- |
| O=C(Cc1ccc(OCc2cccc(Cl)c2)cc1)NO | 29.8 µM (inactive) | 58.9 µM (inactive) | 2.98 µM (inactive) | 25.8 µM (inactive) | 14.7 µM (inactive) | 58.7 µM (inactive) | 27.6 µM (inactive) | 32 µM (inactive) | 37.8 µM (inactive) | 41.8 µM (inactive) | 25 µM (inactive) | 19.4 µM (inactive) | 22.2 µM (inactive) | 34.8 µM (inactive) | 33.3 µM (inactive) | 21 µM (inactive) | 24.5 µM (inactive) | 21.5 µM (inactive) | 27.5 µM (inactive) | – |
| Nc1nc(=O)c2c([nH]1)NCC(CCNc1ccc(C(=O)O)cc1)N2 (centres undefined) | > 100 µM (inactive) | > 100 µM (inactive) | > 100 µM (inactive) | > 100 µM (inactive) | > 100 µM (inactive) | – | > 100 µM (inactive) | > 100 µM (inactive) | > 100 µM (inactive) | > 100 µM (inactive) | > 100 µM (inactive) | > 100 µM (inactive) | > 100 µM (inactive) | > 100 µM (inactive) | > 100 µM (inactive) | > 100 µM (inactive) | > 100 µM (inactive) | > 100 µM (inactive) | > 100 µM (inactive) | > 100 µM (inactive) |
| O=C1CC(C(O)C(O)C(O)CO)CC(=O)N1 (centres undefined) | – | > 100 µM (inactive) | > 100 µM (inactive) | > 100 µM (inactive) | > 100 µM (inactive) | > 100 µM (inactive) | > 100 µM (inactive) | > 100 µM (inactive) | > 100 µM (inactive) | > 100 µM (inactive) | > 100 µM (inactive) | > 100 µM (inactive) | > 100 µM (inactive) | > 100 µM (inactive) | > 100 µM (inactive) | – | > 100 µM (inactive) | – | > 100 µM (inactive) | > 100 µM (inactive) |
| COc1ccc(-c2nc3ncccn3c2-c2ccc([S+](C)[O-])cc2)cc1 (centres undefined) | 45.3 µM (inactive) | 36.9 µM (inactive) | > 100 µM (inactive) | > 100 µM (inactive) | > 100 µM (inactive) | – | > 100 µM (inactive) | > 100 µM (inactive) | 28.3 µM (inactive) | 15.1 µM (inactive) | > 100 µM (inactive) | – | > 100 µM (inactive) | – | 36.8 µM (inactive) | > 100 µM (inactive) | > 100 µM (inactive) | > 100 µM (inactive) | > 100 µM (inactive) | – |
| CC1=NN(c2ccccc2)C(=O)C1/N=N/c1ccc([As](=O)(O)O)c(O)c1 (centres undefined) | > 100 µM (inactive) | > 100 µM (inactive) | > 100 µM (inactive) | > 100 µM (inactive) | > 100 µM (inactive) | – | > 100 µM (inactive) | > 100 µM (inactive) | > 100 µM (inactive) | > 100 µM (inactive) | > 100 µM (inactive) | > 100 µM (inactive) | > 100 µM (inactive) | > 100 µM (inactive) | > 100 µM (inactive) | > 100 µM (inactive) | > 100 µM (inactive) | > 100 µM (inactive) | > 100 µM (inactive) | > 100 µM (inactive) |
| Cc1ccc(-c2cc(O)c3nc4ccccc4n3c2)cc1 | > 100 µM (inactive) | > 100 µM (inactive) | > 100 µM (inactive) | > 100 µM (inactive) | > 100 µM (inactive) | – | > 100 µM (inactive) | > 100 µM (inactive) | > 100 µM (inactive) | 5.27 µM (inactive) | > 100 µM (inactive) | > 100 µM (inactive) | > 100 µM (inactive) | > 100 µM (inactive) | – | – | > 100 µM (inactive) | > 100 µM (inactive) | > 100 µM (inactive) | > 100 µM (inactive) |
| O=C1N/C(=N/N=C/c2ccccc2)N/C1=C\c1cccs1 | 18.6 µM (inactive) | 8.32 µM (inactive) | 27.5 µM (inactive) | 22 µM (inactive) | 18.5 µM (inactive) | – | 19.1 µM (inactive) | 17.4 µM (inactive) | 9.84 µM (inactive) | 7.52 µM (inactive) | 8.13 µM (inactive) | 10.6 µM (inactive) | 15.4 µM (inactive) | 23.1 µM (inactive) | 7.53 µM (inactive) | 8.57 µM (inactive) | 17.3 µM (inactive) | 18.5 µM (inactive) | 25.6 µM (inactive) | 8.99 µM (inactive) |
| O=c1[nH]c(N/N=C\C(O)C(O)C(O)CO)nc2ccccc12 (centres undefined) | > 100 µM (inactive) | > 100 µM (inactive) | > 100 µM (inactive) | > 100 µM (inactive) | > 100 µM (inactive) | – | > 100 µM (inactive) | > 100 µM (inactive) | > 100 µM (inactive) | > 100 µM (inactive) | 83.2 µM (inactive) | > 100 µM (inactive) | > 100 µM (inactive) | > 100 µM (inactive) | > 100 µM (inactive) | > 100 µM (inactive) | > 100 µM (inactive) | > 100 µM (inactive) | > 100 µM (inactive) | – |
| CCC(C)C1NC(=O)C(CC(C)C)NC(=O)C(C(C)C)NC(=O)C2CSSCC(NC1=O)C(=O)N2 (centres undefined) (cyclo(CCVLI); disulfide 1-2; configuration not given here) | – | 0.184 µM (active) | 0.0165 µM (active) | 0.112 µM (active) | 0.157 µM (active) | 0.082 µM (active) | 0.192 µM (active) | 0.182 µM (active) | 0.0318 µM (active) | 0.194 µM (active) | 0.0991 µM (active) | – | 0.187 µM (active) | 0.687 µM (active) | 0.153 µM (active) | 0.142 µM (active) | 0.0498 µM (active) | 0.156 µM (active) | 0.177 µM (active) | – |
| NC(Cc1c[nH]c2cc([N+](=O)[O-])ccc12)C(=O)O (centres undefined) | > 100 µM (inactive) | > 100 µM (inactive) | > 100 µM (inactive) | > 100 µM (inactive) | > 100 µM (inactive) | – | > 100 µM (inactive) | > 100 µM (inactive) | > 100 µM (inactive) | > 100 µM (inactive) | > 100 µM (inactive) | 33.7 µM (inactive) | > 100 µM (inactive) | > 100 µM (inactive) | > 100 µM (inactive) | > 100 µM (inactive) | > 100 µM (inactive) | > 100 µM (inactive) | > 100 µM (inactive) | > 100 µM (inactive) |
| O=C1OC(C(O)C(O)C(O)CO)C(O)C1O (centres undefined) | > 100 µM (inactive) | – | > 100 µM (inactive) | > 100 µM (inactive) | > 100 µM (inactive) | > 100 µM (inactive) | > 100 µM (inactive) | > 100 µM (inactive) | > 100 µM (inactive) | > 100 µM (inactive) | > 100 µM (inactive) | > 100 µM (inactive) | > 100 µM (inactive) | > 100 µM (inactive) | > 100 µM (inactive) | > 100 µM (inactive) | > 100 µM (inactive) | > 100 µM (inactive) | > 100 µM (inactive) | > 100 µM (inactive) |
| CC(=O)/C=C/C=C(\C)CC/C=C(\C)CC(C)C | 55.7 µM (inactive) | 30.2 µM (inactive) | 18.1 µM (inactive) | 35.2 µM (inactive) | 34 µM (inactive) | 18.4 µM (inactive) | 31.4 µM (inactive) | 30.8 µM (inactive) | 22.8 µM (inactive) | 27.9 µM (inactive) | 20.2 µM (inactive) | 26.9 µM (inactive) | 26.4 µM (inactive) | > 100 µM (inactive) | 18.5 µM (inactive) | 20 µM (inactive) | 21.8 µM (inactive) | 58.6 µM (inactive) | 34 µM (inactive) | – |
| O=c1/c(=C/c2ccccn2)sc2nc3cc4c(cc3n12)OCCO4 | > 100 µM (inactive) | > 100 µM (inactive) | > 100 µM (inactive) | 91.8 µM (inactive) | > 100 µM (inactive) | > 100 µM (inactive) | > 100 µM (inactive) | > 100 µM (inactive) | – | > 100 µM (inactive) | > 100 µM (inactive) | > 100 µM (inactive) | > 100 µM (inactive) | > 100 µM (inactive) | > 100 µM (inactive) | > 100 µM (inactive) | > 100 µM (inactive) | > 100 µM (inactive) | > 100 µM (inactive) | > 100 µM (inactive) |
| COC(=O)C1(Cc2ccccc2)Cc2cc3c(cc2C1O)CCC3 (centres undefined) | 17 µM (inactive) | 17.5 µM (inactive) | 17.5 µM (inactive) | 34.8 µM (inactive) | 13.6 µM (inactive) | 24.9 µM (inactive) | 17.7 µM (inactive) | 27 µM (inactive) | – | 16.3 µM (inactive) | 21.3 µM (inactive) | 19.5 µM (inactive) | 16.4 µM (inactive) | 25.9 µM (inactive) | 15.9 µM (inactive) | – | 17.9 µM (inactive) | 15.2 µM (inactive) | 24 µM (inactive) | 14 µM (inactive) |
| O=C1/C(=C/c2cccs2)NC(=S)N1CN1CCCCC1 | > 100 µM (inactive) | > 100 µM (inactive) | 55.5 µM (inactive) | > 100 µM (inactive) | 42.3 µM (inactive) | – | 97.5 µM (inactive) | > 100 µM (inactive) | 28.2 µM (inactive) | 85.1 µM (inactive) | 17.4 µM (inactive) | 78.2 µM (inactive) | > 100 µM (inactive) | > 100 µM (inactive) | 35.3 µM (inactive) | > 100 µM (inactive) | 33 µM (inactive) | 42.5 µM (inactive) | > 100 µM (inactive) | > 100 µM (inactive) |
